According to patent US20220184019A1, “Use of chlorogenic acid in preparation of drug for preventing and treating ocular inflammation” (SICHUAN JIUZHANG BIOLOGICAL SCIENCE AND TECHNOLOGY CO., LTD, priority 2017, published 2022):
Entries after “also recorded” stand apart in the source; their conditions may differ. Marks after values point to notes of the source that are not given here.

Assays:
[1] = system: experimental autoimmune uveitis (EAU); test: Therapeutic effect on IRBP-induced experimental autoimmune uveitis in rats; slit-lamp ocular inflammation score (Caspi clinical grading); type: in vivo, SD rats; settings: 20 mg/kg intraperitoneal; for Scores of ocular inflammation in rats: EAU SD rats
scleritis [2] = test: Clinical efficacy on scleritis: inflammation control in one month; type: in vivo, patients; settings: for Cure / Improved / Ineffective / Total effective rate: scleritis patients, n=10 per group, inflammation control in one month
Method: (§1) Twenty patients with scleritis were randomly divided into chlorogenic acid test group (10 patients) and control group (10 patients). Patients in chlorogenic acid test group were given chlorogenic acid at a dose of 3 mg/(kg·d) by intramuscular injection. The patients in the control group were given dexamethasone sodium phosphate (5 mg/d) by intravenous injection, and after continuous observation and treatment for 5 days, they initially received oral […] (1 mg/(kg·d)). Both groups were continuously administrated for one month.
(§2) According to the random table, 20 patients with scleritis were randomly divided into two groups, namely chlorogenic acid test group and dexamethasone sodium phosphate control group. Among 10 patients of chlorogenic acid control group, there were one male and 9 females, with an average age of (30.5±5.1) years old and an average course of disease (5.1±0.3). In the dexamethasone sodium phosphate control group, there were one male and 9 females, with an average age of (31.5±4.7) years old and an average course of disease (5.5±0.3). For both groups of patients, there was no statistically significant difference (P>0.05) in the clinical data including age, gender, and disease course, having comparability.
(§3) (1) Inquiring the medical history in detail, performing detailed examinations such as slit lamp examination, fundus examination, ultrasound examination, eye imaging, etc., and making a clear diagnosis of the patient with scleritis; (2) No glucocorticoid and chlorogenic acid contraindications; (3) Patients having non-microbial infectious scleritis; (4) Patients having no obvious abnormalities in blood routine, electrolytes, liver function, kidney function, blood pressure, blood sugar, and so on.
(§4) (1) Patients with microbial infectious scleritis and systemic infectious diseases; (2) Episcleritis; (3) Patients allergic to glucocorticoids or having toxic side effects due to administration of glucocorticoids; (4) Pregnant women and lactating women as well as babies; (5) Patients with moderate hypertension, severe cardiovascular and cerebrovascular diseases, diabetes, as well as liver and kidney function impairment; (6) Patients having poor compliance and refusing regular review and follow-up.
(§5) Patients in chlorogenic acid test group were given chlorogenic acid at a dose of 3 mg/(kg·d) by intramuscular injection. The patients in the control group were given dexamethasone sodium phosphate at 5 mg/day by intravenous infusion, and after continuous observation and treatment for 3 days, they were changed to oral prednison (1 mg/(kg·d)). Both groups were continuously administrated for one month.
(1) Cure: the eye symptoms and signs completely disappeared after treatment; (2) Improved: the eye symptoms and signs improved after treatment; (3) Ineffective: the inflammation was not controlled, or the situation was the same as before treatment.

scleritis [3] = test: Clinical efficacy on scleritis: vision recovery in one month (logarithmic visual acuity chart); type: in vivo, patients; settings: for Ineffective / Total effective rate / Improved / Significantly improved vision: scleritis patients, n=10 per group, vision recovery in one month; for Improved: improving 1-2 lines; for Significantly improved vision: improving 3 lines or more
Method: as §1, §2, §3, §4, §5
(1) After treatment, the same logarithmic visual acuity chart (the best corrected visual acuity was measured for those with ametropia) was used to detect and record the vision. Significant improvement: improving 3 lines or more; improvement: improving 1-2 lines; ineffective: the vision was not improved or even decreased.

[4] = 3 mg/(kg·d) intramuscular, one month, vs dexamethasone sodium phosphate control, P<0.05

O=C(/C=C/c1ccc(O)c(O)c1)O[C@@H]1C[C@](O)(C(=O)O)C[C@@H](O)[C@H]1O [Chlorogenic acid]
Ocular inflammation (score) compared with the control group at the same time point ([1]; vs normal saline control, P<0.05): significantly reduced; also recorded: significantly lower
Scores of ocular inflammation in rats ([1]; day 6 after immunization): 0.6 ± 0.2
Scores of ocular inflammation in rats ([1]; day 7 after immunization): 0.6 ± 0.2
Scores of ocular inflammation in rats ([1]; day 8 after immunization): 0.7 ± 0.4
Scores of ocular inflammation in rats ([1]; day 9 after immunization): 1.1 ± 0.4
Scores of ocular inflammation in rats ([1]; day 10 after immunization): 1.3 ± 0.6
Scores of ocular inflammation in rats ([1]; day 11 after immunization): 1.9 ± 0.6
Scores of ocular inflammation in rats ([1]; day 12 after immunization): 2.0 ± 0.4
Scores of ocular inflammation in rats ([1]; day 13 after immunization): 1.3 ± 0.6
Scores of ocular inflammation in rats ([1]; day 14 after immunization): 1.1 ± 0.3
Scores of ocular inflammation in rats ([1]; day 15 after immunization): 0.5 ± 0.3
Scores of ocular inflammation in rats ([1]; day 16 after immunization): 0.4 ± 0.3
Scores of ocular inflammation in rats ([1]; day 17 after immunization): 0.3 ± 0.1
Scores of ocular inflammation in rats ([1]; day 18 after immunization): 0.3 ± 0.1
Scores of ocular inflammation in rats ([1]; day 19 after immunization): 0.3 ± 0.1
Scores of ocular inflammation in rats ([1]; day 20 after immunization): 0.3 ± 0.1
Inflammation control effect versus control group (scleritis [2]; [4]): significantly better than the control group
Cure (scleritis [2]): 5 (50%)* cases (%)
Improved (scleritis [2]): 3 (30%) cases (%)
Ineffective (scleritis [2]): 2 (20%) cases (%)
Total effective rate (scleritis [2]): 8 (80%)* cases (%)
Vision recovery versus control group (scleritis [3]; [4]): significantly better than the control group
Ineffective (scleritis [3]): 1 (10%) case (%)
Total effective rate (scleritis [3]): 90 (90%)* case (%)
Improved (scleritis [3]): 3 (30%) case (%)
Significantly improved vision (scleritis [3]): 6 (60%)* case (%)

C[C@@H]1C[C@H]2[C@@H]3CCC4=CC(=O)C=C[C@]4(C)[C@@]3(F)[C@@H](O)C[C@]2(C)[C@@]1(O)C(=O)COP(=O)(O)O [Control group, dexamethasone sodium phosphate, reference compound]
Cure (scleritis [2]): 2 (20%) cases (%)
Improved (scleritis [2]): 3 (30%) cases (%)
Ineffective (scleritis [2]): 5 (50%) cases (%)
Total effective rate (scleritis [2]): 5 (50%) cases (%)
Ineffective (scleritis [3]): 4 (40%) case (%)
Total effective rate (scleritis [3]): 60 (60%) case (%)
Improved (scleritis [3]): 3 (30%) case (%)
Significantly improved vision (scleritis [3]): 3 (30%) case (%)
